Laboratory results published in paper PMC3021545, “Insulin Reduces Neuronal Excitability by Turning on GABAA Channels that Generate Tonic Current” (PLoS ONE, 2011).

Test system: T1, insulin-induced high-affinity extrasynaptic GABAA channels (α5, γ2 containing; α5βγ2) of CA1 pyramidal neurons
T1 construct: gene Gabra5
Conditions: insulin-treated (1 nM) slices; -60 mV; ambient GABA; 20-22 °C; inverse agonist

`CCOC(=O)c1ncn2c1[C@@H]1CCCN1C(=O)c1cc(OC)ccc1-2` [L655, 708] was tested. Which “% inhibition at 5 μM” value did it give?
Its value is 85±4%.
